Results from patent US4217446A, “ωAmino-2-hydroxyalkyl derivatives of aminoglycoside antibiotics” (Pfizer Inc., priority 1974, dated 1980).
≈ marks a conversion by molar mass, not a printed value.

Columns and labels:
[1] = test system: Escherichia coli; test: in vitro antibacterial activity, minimum inhibitory concentration (M.I.C.), agar plates; assay type: cell-based; conditions: 24 hours at 37° C., read-out: MIC Esch. coli
Protocol: (§1) The in vitro evaluation of the compounds of the invention as antibacterial agents has been performed by determining the minimum inhibitory concentration (M.I.C.) of the test compound in a suitable medium at which growth of the particular micro-organism fails to occur. In practice, agar plates, each having incorporated therein the test compound at a particular concentration are inoculated with a standard number of cells of the test micro-organism and each plate is then incubated for 24 hours at 37° C. The plates are then observed for the presence or absence of the growth of bacteria and the appropriate M.I.C. value noted. Micro-organisms used in such tests having included strains of Escherichia coli, Klebsiella pneumoniae, Proteus mirabilis, Pseudomonas aeruginosa, Staphylococcus aureus and Streptococcus faecalis. Results of the testing of several of the compounds of this invention for their in vitro antibacterial activity, by the method described hereinbefore, are presented in Table I.

[2] = test system: Pseudomonas aeruginosa; test: as above; assay type: cell-based; conditions: 24 hours at 37° C., read-out: MIC Pseud. aeruginosa
Protocol: as §1

[3] = test system: Staphylococcus aureus; test: as above; assay type: cell-based; conditions: 24 hours at 37° C., read-out: MIC Staph. aureus
Protocol: as §1

[4] = test system: Klebsiella pneumoniae; test: as above; assay type: cell-based; conditions: 24 hours at 37° C., read-out: MIC Kleb. pneumoniae
Protocol: as §1

[5] = test system: Proteus mirabilis; test: as above; assay type: cell-based; conditions: 24 hours at 37° C.
Protocol: as §1

[6] = test system: E. coli; test: in vivo antibacterial activity against E. coli in mice, 50% protection against lethal effect; conditions: Escherichia coli, sc, subcutaneous, 50% protection over 72 hours, read-out: PD50
Protocol: Each compound is administered at a series of dosage levels to groups of mice and its activity is determined as the level at which it gives 50% protection, against the lethal effect of the Escherichia coli organism over a period of 72 hours.
The in vivo antibacterial activity of 1-N-[(S)-4-amino-2-hydroxybutyl]kanamycin A against E. coli in mice has been measured.

`CNC[C@H]1O[C@H](O[C@H]2[C@H](O)[C@@H](O[C@H]3O[C@H](CO)[C@@H](O)[C@H](N)[C@H]3O)[C@H](NC[C@@H](O)CCN)C[C@@H]2N)[C@H](O)[C@@H](O)[C@@H]1O` [6'-N-Methyl-1-N-[(S)-4-amino-2-hydroxybutyl]kanamycin A] gave an MIC [1] of 6.2 µg/mL (≈ 10.6 µM), an MIC [2] of 3.1 µg/mL (≈ 5.29 µM) and an MIC [3] of 3.1 µg/mL (≈ 5.29 µM). For the same compound, the MIC [4] was 3.1 µg/mL (≈ 5.29 µM) and the MIC [5] was 6.2 µg/mL (≈ 10.6 µM).

`NCC[C@H](O)CN[C@@H]1C[C@H](N)[C@@H](O[C@H]2O[C@H](CN)[C@@H](O)[C@H](O)[C@H]2N)[C@H](O)[C@H]1O[C@H]1O[C@H](CO)[C@@H](O)[C@H](N)[C@H]1O` [1-N-[(S)-4-Amino-2-hydroxybutyl]kanamycin B] gave an MIC [1] of 3.1 µg/mL (≈ 5.43 µM), an MIC [2] of 0.8 µg/mL (≈ 1.4 µM) and an MIC [3] of 1.6 µg/mL (≈ 2.8 µM). For the same compound, the MIC [4] was 1.6 µg/mL (≈ 2.8 µM) and the MIC [5] was 6.2 µg/mL (≈ 10.9 µM).

Compound `NCCCC[C@H](O)CN[C@@H]1C[C@H](N)[C@@H](O[C@H]2O[C@H](CN)[C@@H](O)[C@H](O)[C@H]2O)[C@H](O)[C@H]1O[C@H]1O[C@H](CO)[C@@H](O)[C@H](N)[C@H]1O` [1-N-[(S)-6-Amino-2-hydroxyhexyl]-kanamycin A] has an MIC [1] of 6.2 µg/mL (≈ 10.3 µM), an MIC [2] of 3.1 µg/mL (≈ 5.17 µM) and an MIC [3] of 1.6 µg/mL (≈ 2.67 µM). It also gave an MIC [4] of 6.2 µg/mL (≈ 10.3 µM) and an MIC [5] of 3.1 µg/mL (≈ 5.17 µM).

`NCCC[C@H](O)CN[C@@H]1C[C@H](N)[C@@H](O[C@H]2O[C@H](CN)[C@@H](O)[C@H](O)[C@H]2O)[C@H](O)[C@H]1O[C@H]1O[C@H](CO)[C@@H](O)[C@H](N)[C@H]1O` [1-N-[(S)-5-Amino-2-hydroxypentyl]kanamycin A] showed an MIC [1] of 6.2 µg/mL (≈ 10.6 µM), an MIC [2] of 3.1 µg/mL (≈ 5.29 µM) and an MIC [3] of 1.6 µg/mL (≈ 2.73 µM). It also gave an MIC [4] of 3.1 µg/mL (≈ 5.29 µM) and an MIC [5] of 12.5 µg/mL (≈ 21.3 µM).

With `NCC(O)CN[C@@H]1C[C@H](N)[C@@H](O[C@H]2O[C@H](CN)[C@@H](O)[C@H](O)[C@H]2O)[C@H](O)[C@H]1O[C@H]1O[C@H](CO)[C@@H](O)[C@H](N)[C@H]1O` (stereo partly drawn) [1-N-[3-amino-2-hydroxypropyl]kanamycin, 1-N-[3-Amino-2-hydroxpropyl]kanamycin A] the MIC [1] was 12.5 µg/mL (≈ 22.4 µM), the MIC [2] was 3.1 µg/mL (≈ 5.56 µM) and the MIC [3] was 3.1 µg/mL (≈ 5.56 µM). The MIC [4] was 6.2 µg/mL (≈ 11.1 µM) and the MIC [5] was 12.5 µg/mL (≈ 22.4 µM).

Work on `NCC[C@H](O)CN[C@@H]1C[C@H](N)[C@@H](O[C@H]2O[C@H](CN)[C@@H](O)[C@H](O)[C@H]2O)[C@H](O)[C@H]1O[C@H]1O[C@H](CO)[C@@H](O)[C@H](N)[C@H]1O` [1-N-[(S)-4-Amino-2-hydroxybutyl]kanamycin A] yielded an ED50 [6] of 3.8 mg/kg, an MIC [1] of 6.2 µg/mL (≈ 10.8 µM) and an MIC [2] of 1.6 µg/mL (≈ 2.8 µM). It also gave an MIC [3] of 1.6 µg/mL (≈ 2.8 µM), an MIC [4] of 3.1 µg/mL (≈ 5.42 µM) and an MIC [5] of 3.1 µg/mL (≈ 5.42 µM).

For `NCC[C@H](O)CN[C@@H]1C[C@H](N)[C@@H](O[C@H]2O[C@H](CN)[C@@H](O)[C@H](O)[C@H]2N)[C@H](O[C@@H]2O[C@H](CO)[C@@H](O)[C@H]2O)[C@H]1O` [1-N-[(S)-4-Amino-2-hydroxybutyl]ribostamycin], the MIC [1] was 6.2 µg/mL (≈ 11.4 µM), the MIC [2] was 12.5 µg/mL (≈ 23.1 µM) and the MIC [3] was 12.5 µg/mL (≈ 23.1 µM). It also gave an MIC [4] of 6.2 µg/mL (≈ 11.4 µM) and an MIC [5] of 25 µg/mL (≈ 46.2 µM).
